Measured values from patent US9415047B2, “Use of benzo five-membered nitrogen heterocyclic piperazine or piperidine derivatives” (Liaoning Emmy Biological Pharmaceutical Co., Ltd., priority 2012, dated 2016).

Columns and labels:
[1] = test system: NA constricted rabbit aorta; test: Relaxing effects on vascular smooth muscle constricted by noradrenaline (NA) in vitro; conditions: relaxation of rabbit aorta constricted by noradrenaline (10^−5 mol/L), mean±SEM, n=5; for EC50: Oryctolagus cuniculus
Method: Adrenaline hydrochloride (AD) (10^−5 mol/L) was added into a bath tube to induce constriction, when maximal constriction was achieved, the sample was completely flushed, K-H solution was changed for every 20 min. Contents in the tube was balanced for 60 min, when baseline recovered to be stable, noradrenaline bitartrate (NA) (10^−5 mol/L) was added to induce constriction. When the later maximal constriction response was basically consistent with the former one, the prepared compound solutions were subsequently added, including compound II-84 to II-123 solutions (1×10^−10-1×10^−2 mol/L), compound II-124 to II-157 solutions (1×10^−10-1×10^−3 mol/L), to record the waveforms. Relaxing percentage of the compound was used as Y axis, maximal relaxation response was 100%, negative logarithm of different concentration was used as X axis, to draw dose effect curve (expressed in mean±SEM ( ? ), n=5).

[2] = test system: AD constricted rabbit aorta; test: Relaxing effects on vascular smooth muscle constricted by adrenaline hydrochloride (AD) in vitro; conditions: relaxation of rabbit aorta constricted by adrenaline (10^−5 mol/L), mean±SEM, n=5; for EC50: Oryctolagus cuniculus
Method: Adrenaline hydrochloride (AD) (10^−5 mol/L) was added into a bath tube to induce constriction, when maximal constriction was achieved, the sample was completely flushed, K-H solution was changed for every 20 min. Contents in the tube was balanced for 60 min, when baseline recovered to be stable, the […] was added at the same concentration to induce constriction. When the later maximal constriction response was basically consistent with the former one, the prepared compound solutions were subsequently added, including compound II-1 to II-60 solutions (1×10^−8-1×10^−3 mol/L), compound II-84 to II-123 solutions (1×10^−10-1×10^−2 mol/L) and compound II-124 to II-157 solutions (1×10^−10˜1×10^−3 mol/L), to record the waveforms. Relaxing percentage of the compound was used as Y axis, maximal relaxation response was 100%, negative logarithm of different concentration was used as X axis, to draw dose effect curve (expressed in mean±SEM ( ? ), n=5). Compounds II-2 and II-3 had the most obvious relaxing effects (FIG. 1 and FIG. 8).

[3] = test system: high kalium concentration constricted rabbit aorta; test: Relaxing effects on vascular smooth muscle constricted by high kalium concentration in vitro; conditions: Oryctolagus cuniculus, relaxation of rabbit aorta constricted by high kalium solution (K+ 60 mmol/L); mean±SEM, n=5
Method: Adrenaline hydrochloride (AD) (10^−5 mol/L) was added into a bath tube to induce constriction, when maximal constriction was achieved, the sample was completely flushed, K-H solution was changed for every 20 min. Contents in the tube was balanced for 60 min, when baseline recovered to be stable, K-H solution in the bath tube was replaced with high kalium concentration solution to induce constriction. When the later maximal constriction response was basically consistent with the former one, the prepared compound solutions were subsequently added, including compound II-1 to II-60 solutions (1×10^−8-1×10^−3 mol/L), compound II-84 to II-123 solutions (1×10^−10-1×10^−2 mol/L) and compound II-124 to II-157 solutions (1×10^−10-1×10^−3 mol/L), to record the waveforms. Relaxing percentage of the compound was used as Y axis, maximal relaxation response was 100%, negative logarithm of different concentration was used as X axis, to draw dose effect curve (expressed in mean±SEM ( ? ), n=5). Compounds II-2 and II-3 had the most obvious relaxing effects (FIG. 2 and FIG. 9).

| EC50 [1] | EC50 [2] | EC50 [3] | SMILES | −logEC50 [1] | −logEC50 [2] |
| --- | --- | --- | --- | --- | --- |
| 1.55 µM |  |  | Fc1ccc2c(C3CCN(CCn4nnc5ccccc54)CC3)noc2c1 [II-94, N-(2-(1-benzotriazolyl)ethyl)-4-(3-(6-fluorobenzisoxazolyl))piperidine] |  |  |
| 5.5 µM | 3.55 µM |  | Cc1ccc2c(C3CCN(CCCn4nnc5ccccc54)CC3)noc2c1 [II-135, N-(3-(1H-benzotriazole-1-yl)propyl)-4-(3-(6-methylbenzisoxazolyl))piperidine] |  |  |
|  | 4.17 µM |  | Cc1ccc2nnn(CCCN3CCC(c4noc5cc(F)ccc45)CC3)c2c1 [II-139, N-(3-(6-methyl-1H-benzotriazole-1-yl)propyl)-4-(3-(6-fluorobenzisoxazolyl))piperidine] | 5.35 ± 0.03 |  |
| 1.86 µM |  |  | Fc1ccc2c(C3CCN(CCCCn4nnc5ccccc54)CC3)noc2c1 [II-95, N-(4-(1-benzotriazolyl)butyl)-4-(3-(6-fluorobenzisoxazolyl))piperidine] |  |  |
|  | 1.1 µM | 110 µM | Fc1ccc2c(C3CCN(CCCCn4nnc5ccccc54)CC3)noc2c1 [II-144, N-(4-(1-benzotriazolyl)butyl)-4-(3-(6-fluorobenzisoxazolyl))piperidine] |  |  |
| 4.9 µM |  |  | N#Cc1ccc2nnn(CCCCN3CCC(c4noc5cc(F)ccc45)CC3)c2c1 [II-96, N-(4-(6-cyanobenzotriazolyl)butyl)-4-(3-(6-fluorobenzisoxazolyl))piperidine] |  |  |
|  | 12.9 µM | 32.4 µM | c1ccc2c(c1)nnn2CCCCN1CCN(c2noc3ccccc23)CC1 [II-35, 3-(4-(4-(1H-benzotriazole-1-yl)butyl)piperazine-1-yl)benzisoxazole] |  |  |
|  | 3.89 µM | 24.5 µM | Fc1ccc2nnn(CCCCN3CCN(c4cccc(C(F)(F)F)c4)CC3)c2c1 [II-32, 6-fluoro-1-(4-(4-(3-trifluoromethylphenyl)piperazine-1-yl)butyl)-1H-benzotriazole] |  |  |
|  | 40.7 µM | 117 µM | FC(F)(F)c1cccc(N2CCN(CCCCCn3nnc4ccccc43)CC2)c1 [II-42, 1-(5-(4-(3-trifluoromethylphenyl)piperazine-1-yl)pentyl)-1H-benzotriazole] |  |  |
|  | 46.8 µM | 81.3 µM | c1cnc(N2CCN(CCCCn3nnc4ccccc43)CC2)nc1 [II-45, 1-(4-(4-(2-pyrimidinyl)piperazine-1-yl)butyl)-1H-benzotriazole] |  |  |
|  | 2.75 µM | 3.72 µM | Fc1ccc2c(N3CCN(CCCn4nnc5ccccc54)CC3)noc2c1 [II-37, 6-fluoro-3-(4-(3-(1H-benzotriazole-1-yl)propyl)piperazine-1-yl)benzisoxazole] |  |  |
|  | 13.8 µM | 18.2 µM | Fc1ccc2c(N3CCN(CCCCn4cnc5ccccc54)CC3)noc2c1 [II-18, 1-(4-(4-(3-(6-fluorobenzisoxazolyl))piperazine-1-yl)butyl)-1H-benzimidazole] |  |  |

Continued, compound first:

| SMILES | EC50 [1] | EC50 [2] | EC50 [3] | −logEC50 [1] | −logEC50 [2] |
| --- | --- | --- | --- | --- | --- |
| FC(F)(F)c1cccc(C2CCN(CCCCn3nnc4ccccc43)CC2)c1 [II-127, N-(4-(1H-benzotriazole-1-yl)butyl)-4-(3-trifluoromethylphenyl)piperidine] |  | 0.437 µM |  | 6.45 ± 0.03 |  |
| COc1ccc2nnn(CCCN3CCC(c4nsc5cc(F)ccc45)CC3)c2c1 [II-100] | 64.6 µM |  |  |  |  |
| Fc1cccc(C2CCN(CCCCn3cnc4ccccc43)CC2)c1 [II-128, N-(4-(1H-benzimidazoyl-1-yl)butyl)-4-(3-fluorophenyl)piperidine] |  | 12.9 µM |  | 4.67 ± 0.02 |  |
| c1coc(C2CCN(CCCCn3cnc4ccccc43)CC2)c1 [II-152, N-(4-(1H-benzimidazoyl-1-yl)butyl)-4-(2-furyl)piperidine] |  | 37.2 µM |  | 4.23 ± 0.03 |  |
| Clc1cccc(C2CCN(CCCCn3nnc4ccccc43)CC2)c1 [II-125, N-(4-(1H-benzotriazole-1-yl)butyl)-4-(3-chlorophenyl)piperidine] |  | 6.92 µM |  | 5.27 ± 0.03 |  |
| COc1ccc2nnn(CCCN3CCC(c4n[nH]c5cc(F)ccc45)CC3)c2c1 [II-101] | 37.2 µM |  |  |  |  |
| COc1ccc2nnn(CCCCN3CCC(c4cccc(C(F)(F)F)c4)CC3)c2c1 [II-131, N-(4-(6-methoxyl-1H-benzotriazole-1-yl)butyl)-4-(3-trifluoromethylphenyl)piperidine] |  | 13.8 µM |  | 4.77 ± 0.03 |  |
| c1ccc2c(c1)nnn2CCCCN1CCC(C2CCCCC2)CC1 [II-155, N-(4-(1H-benzotriazole-1-yl)butyl)-4-cyclohexyl piperidine] |  |  |  | 4.44 ± 0.05 | 4.39 ± 0.05 |
| c1ccc2c(c1)nnn2CCCCN1CCN(C2CCCCC2)CC1 [II-46, 1-(4-(4-cyclohexylpiperazine-1-yl)butyl)-1H-benzotriazole] |  | 55 µM | 120 µM |  |  |
| COC(=O)c1ccc2ncn(CCCCN3CCN(c4cccc(C(F)(F)F)c4)CC3)c2c1 [II-27, 6-methoxycarbonyl-1-(4-(4-(3-trifluoromethylphenyl)piperazine-1-yl)butyl)-1H-benzimidazole] |  | 49 µM | 87.1 µM |  |  |
| c1ccc(N2CCN(CCCn3cnc4ccccc43)CC2)cc1 [II-7, 1-(3-(4-phenylpiperazine-1-yl)propyl)-1H-benzimidazole] |  | 51.3 µM | 162 µM |  |  |
| N#Cc1ccc2cnn(CCCN3CCN(c4cccc(Cl)c4Cl)CC3)c2c1 [II-60] |  | 89.1 µM | 155 µM |  |  |
| COc1ccc2nnn(CCCN3CCC(c4n[nH]c5cc(F)ccc45)CC3)c2c1 [II-150, N-(3-(6-methoxylbenzotriazolyl)propyl)-4-(3-(6-fluorobenzopyrazol))piperidine] |  | 74.1 µM | 234 µM |  |  |
| c1ccc2c(c1)ncn2CCCCN1CCN(C2CCCCC2)CC1 [II-15, 1-(4-(4-(1-cyclohexyl)piperazine-1-yl)butyl)-1H-benzimidazole] |  | 33.9 µM | 30.2 µM |  |  |
| c1coc(N2CCN(CCCCn3cnc4ccccc43)CC2)c1 [II-12, 1-(4-(4-(2-furyl)piperazine-1-yl)butyl)-1H-benzimidazole] |  | 44.7 µM | 70.8 µM |  |  |
| FC(F)(F)c1cccc(N2CCN(CCCCCn3c(Cl)nc4ccccc43)CC2)c1 [II-28, 2-chloro-1-(5-(4-(3-trifluoromethylphenyl)piperazine-1-yl)pentyl)-1H-benzimidazole] |  | 102 µM | 141 µM |  |  |
| N#Cc1ccc2ncn(CCCCN3CCN(c4cccc(C(F)(F)F)c4)CC3)c2c1 [II-26, 6-cyano-1-(4-(4-(3-trifluoromethylphenyl)piperazine-1-yl)butyl)-1H-benzimidazole] |  | 64.6 µM | 102 µM |  |  |
| Clc1cccc(N2CCN(CCCCn3nnc4ccccc43)CC2)c1 [II-29, 1-(4-(4-(3-chlorophenyl)piperazine-1-yl)butyl)-1H-benzotriazole] |  | 0.977 µM | 2.29 µM |  |  |
| COC(=O)c1ccc2nnn(CCCCN3CCN(c4cccc(C(F)(F)F)c4)CC3)c2c1 [II-56, 6-methoxycarbonyl-1-(4-(4-(3-trifluoromethylphenyl)piperazine-1-yl)butyl)-1H-benzotriazole] |  | 55 µM | 309 µM |  |  |
| Clc1cccc(N2CCN(CCCCn3cnc4ccccc43)CC2)c1Cl [II-3, 1-(4-(4-(2,3-dichlorophenyl)piperazine-1-yl)butyl)-1H-benzimidazole] |  | 0.977 µM | 3.24 µM |  |  |
| FC(F)(F)c1cccc(N2CCN(CCCCn3nnc4ccc(Cl)cc43)CC2)c1 [II-54, 6-chloro-1-(4-(4-(3-trifluoromethylphenyl)piperazine-1-yl)butyl)-1H-benzotriazole] |  | 6.17 µM | 12.3 µM |  |  |
| FC(F)(F)c1cccc(N2CCN(CCCCn3ccc4ccccc43)CC2)c1 [II-57, 1-(4-(4-(3-trifluoromethylphenyl)piperazine-1-yl)butyl)-1H-indole] |  | 61.7 µM | 263 µM |  |  |
